Values joined by “and” are separate entries in the source; they are usually repeats but may differ in a detail not shown here. Identical values can stand only once.
Columns and labels:
[1] = Safety (body weight) in BL3325 PDX model; format: in vivo, mouse
Protocol: Protocol: Nude female Balb/c mice were subcutaneously inoculated with HuPrime® bladder cancer BL3325 tumor tissue, establishing a human bladder cancer subcutaneous xenograft tumor model. The mice were divided into 6 groups, 6 in each group: 50 mg/kg of the test drug olaparib as a monotherapy (Group 02); 80 mg/kg TH-302 as a monotherapy (Group 03); 40 mg/kg TH-302 as a monotherapy (Group 04); 20 mg/kg TH-302 as a monotherapy (Group 05); 40 mg/kg TH-302 in combination therapy with 50 mg/kg olaparib (Group 06); and a glucose injection solution as a vehicle control (Group 01). The vehicle control group and the TH-302 treatment groups were all administered through tail vein, once weekly for a total of 3 weeks. Olaparib was intragastrically administered once daily for totally 30 days. Routes of administration, doses and regimens for the HuPrime® bladder cancer BL3325 animal model are specifically summarized in Table 20.
Tumor growth of the treatment and control groups on different days in the experiment were recorded and shown in Table 21, and corresponding tumor volume growth curves of the mice in respective groups are shown in FIG. 11. Efficacy evaluation was carried out based on relative tumor proliferation rates and relative tumor growth inhibition rates, and the results of efficacy analysis are summarized in Table 22. Body weight changes of the treatment and control groups after administration were recorded to investigate safety of the groups in the HuPrime® bladder cancer BL3325 subcutaneous model. Body weight change rates of the mice on Day 35 are shown in Table 23, and curves showing body weights of the treatment groups over time are plotted in FIG. 12.

[2] = test system: human pancreatic cancer Capan-1 subcutaneous xenograft model; assay: In-depth efficacy in olaparib-resistant pancreatic cancer Capan-1 CDX model (3.2); format: in vivo, mouse; settings: for CR Rate: complete response, animals/group
Protocol: Protocol: Nude BALB/c mice were subcutaneously inoculated with human pancreatic cancer Capan-1 cells, establishing a human pancreatic cancer subcutaneous xenograft model. The mice were divided into 7 groups, 6 in each group: 100 mg/kg of the test drug olaparib as a monotherapy (Group 2); 50 mg/kg of TH-302 as a monotherapy (Group 3, QD); 100 mg/kg of TH-302 as a monotherapy (Group 4); 50 mg/kg of TH-302 as a monotherapy (Group 5, QW); 25 mg/kg of TH-302 as a monotherapy (Group 6); 25 mg/kg TH-302 in combination therapy with 100 mg/kg olaparib (Group 7); and 10% anhydrous ethanol+10% polyoxyethylene (35) castor oil+80% glucose injection solution D5W (pH 7.4) as a vehicle control (Group 1). The vehicle control group and the TH-302 test groups were all administered through tail vein injection. The 50 mg/kg TH-302 monotherapy group (Group 3, QD) was administered once daily for 3 consecutive days. After rest for 4 days and two weeks, the mice were again administered daily for another 3 consecutive days. TH-302 in all the 100 mg/kg (Group 4, QW), 50 mg/kg (Group 5, QW) and 25 mg/kg (Group 6, QW) TH-302 monotherapy groups and 25 mg/kg TH-302+100 mg/kg olaparib combination therapy group (Group 7) was administered once weekly for a total of three weeks. The test drug olaparib in all the groups was orally and intragastrically administered once daily for totally 30 days. Routes of administration, doses and regimens for the human pancreatic cancer Capan-1 animal model are specifically summarized in Table 12.
Tumor growth of the treatment and control groups on different days in the experiment were recorded and shown in Table 13, and corresponding tumor volume growth curves of the mice in respective groups are shown in FIG. 7. Efficacy evaluation was conducted based on relative tumor proliferation rates and relative tumor growth inhibition rates, and the results of efficacy analysis are summarized in Table 14. Body weight changes of the treatment and control groups after administration were recorded to investigate safety of the groups in the human pancreatic cancer Capan-1 subcutaneous model. Body weight change rates of the mice on Day 43 are shown in Table 15, and curves showing body weights of the treatment groups over time are plotted in FIG. 8.
A relative tumor proliferation rate, denoted as T/C %, is calculated as a relative tumor volume or a tumor weight of a treatment group as a percentage of that of the control group at a certain point of time according to:
T/C %=TRTV/CRTV×100% (where TRTV denotes average RTV of the treatment group; CRTV represents average RTV of the vehicle control group; and RTV=Vt/V0, where V0 is a tumor volume of an animal at the time of randomization, and Vt is a tumor volume of the animal after treatment); or
T/C %=TTW/CTW×100% (where TTW is an average tumor weight of the treatment group at the end of the experiment, and CTW is an average tumor weight of the vehicle control group at the end of the experiment).
A relative tumor growth inhibition rate, denoted as TGI (%), is calculated according to: TGI %=(1−T/C)×100% (where T and C are relative tumor volumes (RTV) or tumor weights (TW) of a treatment group and the control group, respectively, at a particular point of time).

[3] = Group 3: 80 mg/kg i.v. QW×3, Day 35
[4] = Group 4: 40 mg/kg i.v. QW×3, Day 35
[5] = Group 5: 20 mg/kg i.v. QW×3, Day 35
[6] = Group 3: 50 mg/kg i.v. QD, Day 43
[7] = Group 4: 100 mg/kg i.v. QW×3, Day 43
[8] = Group 5: 50 mg/kg i.v. QW×3, Day 43
[9] = Group 6: 25 mg/kg i.v. QW×3, Day 43

## Cn1c(COP(=O)(NCCBr)NCCBr)cnc1[N+](=O)[O-] [TH-302, evofosfamide]
[1]; Group 3: 80 mg/kg i.v. QW×3, Day 0
  Average Body Weight g (x ± S): 21.7 ± 0.4 g
[1]; [3]
  Average Body Weight g (x ± S): 23.8 ± 0.6 g
  Body Weight Change Rate (%): 9.46% ± 0.99%
[1]; Group 4: 40 mg/kg i.v. QW×3, Day 0
  Average Body Weight g (x ± S): 21.5 ± 0.3 g
[1]; [4]
  Average Body Weight g (x ± S): 23.2 ± 0.2 g
  Body Weight Change Rate (%): 7.88% ± 1.16%
[1]; Group 5: 20 mg/kg i.v. QW×3, Day 0
  Average Body Weight g (x ± S): 21.6 ± 0.3 g
[1]; [5]
  Average Body Weight g (x ± S): 23.0 ± 0.5 g
  Body Weight Change Rate (%): 6.30% ± 1.07%
[2]; Group 3: 50 mg/kg i.v. QD, Day 9
  Tumor volume: 194.10 mm^3
[2]; Group 3: 50 mg/kg i.v. QD, Day 13
  Tumor volume: 138.02 mm^3
[2]; Group 3: 50 mg/kg i.v. QD, Day 16
  Tumor volume: 124.61 mm^3
[2]; Group 3: 50 mg/kg i.v. QD, Day 20
  Tumor volume: 105.24 mm^3
[2]; Group 3: 50 mg/kg i.v. QD, Day 23
  Tumor volume: 107.93 mm^3
[2]; Group 3: 50 mg/kg i.v. QD, Day 27
  Tumor volume: 110.53 mm^3
[2]; Group 3: 50 mg/kg i.v. QD, Day 30
  Tumor volume: 123.45 mm^3
[2]; Group 3: 50 mg/kg i.v. QD, Day 34
  Tumor volume: 101.47 mm^3
[2]; Group 3: 50 mg/kg i.v. QD, Day 37
  Tumor volume: 114.69 mm^3
[2]; Group 3: 50 mg/kg i.v. QD, Day 41
  Tumor volume: 134.32 mm^3
[2]; [6]
  Relative Tumor Volume (x ± S): 0.99 ± 0.22
  T/C (%): 10.83%
  TGI (%): 89.17%
  CR Rate: 0/6
[2]; Group 3: 50 mg/kg i.v. QD, Day 43, 50 mg/kg
  Tumor volume: 146.99 mm^3 and 146.99 ± 37.96 mm^3
[2]; Group 3: 50 mg/kg i.v. QD×3, 4 days off, 2 weeks off, QD×3, Day 6
  Tumor volume: 146.76 mm^3
[2]; Group 4: 100 mg/kg i.v. QW×3, Day 6
  Tumor volume: 146.05 mm^3
[2]; Group 4: 100 mg/kg i.v. QW×3, Day 9
  Tumor volume: 193.80 mm^3
[2]; Group 4: 100 mg/kg i.v. QW×3, Day 13
  Tumor volume: 123.87 mm^3
[2]; Group 4: 100 mg/kg i.v. QW×3, Day 16
  Tumor volume: 112.22 mm^3
[2]; Group 4: 100 mg/kg i.v. QW×3, Day 20
  Tumor volume: 85.08 mm^3
[2]; Group 4: 100 mg/kg i.v. QW×3, Day 23
  Tumor volume: 59.95 mm^3
[2]; Group 4: 100 mg/kg i.v. QW×3, Day 27
  Tumor volume: 49.03 mm^3
[2]; Group 4: 100 mg/kg i.v. QW×3, Day 30
  Tumor volume: 48.35 mm^3
[2]; Group 4: 100 mg/kg i.v. QW×3, Day 34
  Tumor volume: 65.87 mm^3
[2]; Group 4: 100 mg/kg i.v. QW×3, Day 37
  Tumor volume: 75.54 mm^3
[2]; Group 4: 100 mg/kg i.v. QW×3, Day 41
  Tumor volume: 106.10 mm^3
[2]; [7]
  Relative Tumor Volume (x ± S): 0.83 ± 0.17
  T/C (%): 9.11%
  TGI (%): 90.89%
  CR Rate: 0/6
[2]; Group 4: 100 mg/kg i.v. QW×3, Day 43, 100 mg/kg
  Tumor volume: 124.68 mm^3 and 124.68 ± 31.35 mm^3
[2]; Group 5: 50 mg/kg i.v. QW×3, Day 6
  Tumor volume: 147.11 mm^3
[2]; Group 5: 50 mg/kg i.v. QW×3, Day 9
  Tumor volume: 182.60 mm^3
[2]; Group 5: 50 mg/kg i.v. QW×3, Day 13
  Tumor volume: 178.72 mm^3
[2]; Group 5: 50 mg/kg i.v. QW×3, Day 16
  Tumor volume: 181.66 mm^3
[2]; Group 5: 50 mg/kg i.v. QW×3, Day 20
  Tumor volume: 181.56 mm^3
[2]; Group 5: 50 mg/kg i.v. QW×3, Day 23
  Tumor volume: 156.49 mm^3
[2]; Group 5: 50 mg/kg i.v. QW×3, Day 27
  Tumor volume: 152.57 mm^3
[2]; Group 5: 50 mg/kg i.v. QW×3, Day 30
  Tumor volume: 152.13 mm^3
[2]; Group 5: 50 mg/kg i.v. QW×3, Day 34
  Tumor volume: 176.07 mm^3
[2]; Group 5: 50 mg/kg i.v. QW×3, Day 37
  Tumor volume: 198.42 mm^3
[2]; Group 5: 50 mg/kg i.v. QW×3, Day 41
  Tumor volume: 221.92 mm^3
[2]; [8]
  Complete tumor inhibition rate: 33.3%
  Relative Tumor Volume (x ± S): 1.81 ± 0.64
  T/C (%): 19.82%
  TGI (%): 80.18%
  CR Rate: 2/6
[2]; Group 5: 50 mg/kg i.v. QW×3, Day 43, 50 mg/kg
  Tumor volume: 263.45 mm^3 and 263.45 ± 86.54 mm^3
[2]; Group 6: 25 mg/kg i.v. QW×3, Day 6
  Tumor volume: 146.81 mm^3
[2]; Group 6: 25 mg/kg i.v. QW×3, Day 9
  Tumor volume: 213.60 mm^3
[2]; Group 6: 25 mg/kg i.v. QW×3, Day 13
  Tumor volume: 233.94 mm^3
[2]; Group 6: 25 mg/kg i.v. QW×3, Day 16
  Tumor volume: 277.57 mm^3
[2]; Group 6: 25 mg/kg i.v. QW×3, Day 20
  Tumor volume: 295.46 mm^3
[2]; Group 6: 25 mg/kg i.v. QW×3, Day 23
  Tumor volume: 328.33 mm^3
[2]; Group 6: 25 mg/kg i.v. QW×3, Day 27
  Tumor volume: 373.13 mm^3
[2]; Group 6: 25 mg/kg i.v. QW×3, Day 30
  Tumor volume: 454.44 mm^3
[2]; Group 6: 25 mg/kg i.v. QW×3, Day 34
  Tumor volume: 705.45 mm^3
[2]; Group 6: 25 mg/kg i.v. QW×3, Day 37
  Tumor volume: 886.42 mm^3
[2]; Group 6: 25 mg/kg i.v. QW×3, Day 41
  Tumor volume: 1344.26 mm^3
[2]; [9]
  Relative Tumor Volume (x ± S): 11.12 ± 3.31
  T/C (%): 121.59%
  TGI (%): −21.59%
  CR Rate: 0/6
[2]; Group 6: 25 mg/kg i.v. QW×3, Day 43, 25 mg/kg
  Tumor volume: 1521.33 mm^3 and 1521.33 ± 349.46 mm^3

Source: US20250387419A1, “PARP INHIBITOR-RESISTANT PATIENT TREATED WITH TH-302” (ASCENTAWITS PHARMACEUTICALS, LTD., priority 2021, published 2025)
